Results published in publication PMC6691788, “Design and synthesis of phthalazine-based compounds as potent anticancer agents with potential antiangiogenic activity via VEGFR-2 inhibition” (Journal of Enzyme Inhibition and Medicinal Chemistry, 2019).

Tests used:
CCRF-CEM = experiment: NCI 60 cell panel SRB screen; type: cell-based, human; conditions: for activity at 10 µM: single dose 10 μM, read-out: percent cell growth promotion
K-562 = experiment: NCI 60 cell panel SRB screen; type: cell-based; conditions: Homo sapiens, K562; for activity at 10 µM: K-562, single dose 10 μM, read-out: percent cell growth promotion
RPMI-8226 = experiment: NCI 60 cell panel SRB screen; type: cell-based; conditions: Homo sapiens; for activity at 10 µM: RPMI-8226, single dose 10 μM, read-out: percent cell growth promotion
SR = experiment: NCI 60 cell panel SRB screen; type: cell-based; conditions: Homo sapiens; for activity at 10 µM: single dose 10 μM, read-out: percent cell growth promotion
NCI-H226 = experiment: NCI 60 cell panel SRB screen; type: cell-based; conditions: Homo sapiens; for activity at 10 µM: NCI-H226, single dose 10 μM, read-out: percent cell growth promotion
NCI-H23 = experiment: NCI 60 cell panel SRB screen; type: cell-based; conditions: Homo sapiens; for activity at 10 µM: NCI-H23, single dose 10 μM, read-out: percent cell growth promotion
NCI-H322M = experiment: NCI 60 cell panel SRB screen; type: cell-based; conditions: Homo sapiens; for activity at 10 µM: single dose 10 μM, read-out: percent cell growth promotion
NCI-H522 = experiment: NCI 60 cell panel SRB screen; type: cell-based; conditions: Homo sapiens; for activity at 10 µM: NCI-H522, single dose 10 μM, read-out: percent cell growth promotion
COLO 205 = experiment: NCI 60 cell panel SRB screen; type: cell-based; conditions: Homo sapiens; for activity at 10 µM: COLO 205, single dose 10 μM, read-out: percent cell growth promotion
SW-620 = experiment: NCI 60 cell panel SRB screen; type: cell-based; conditions: Homo sapiens; for activity at 10 µM: SW-620, single dose 10 μM, read-out: percent cell growth promotion
SNB-75 = experiment: NCI 60 cell panel SRB screen; type: cell-based; conditions: Homo sapiens; for activity at 10 µM: SNB-75, single dose 10 μM, read-out: percent cell growth promotion
LOX IMVI = experiment: NCI 60 cell panel SRB screen; type: cell-based; conditions: Homo sapiens; for activity at 10 µM: read-out: percent cell growth promotion
MALME-3M = experiment: NCI 60 cell panel SRB screen; type: cell-based; conditions: Homo sapiens; for activity at 10 µM: read-out: percent cell growth promotion
SK-MEL-28 = experiment: NCI 60 cell panel SRB screen; type: cell-based; conditions: Homo sapiens; for activity at 10 µM: SK-MEL-28, read-out: percent cell growth promotion
OVCAR-4 = experiment: NCI 60 cell panel SRB screen; type: cell-based; conditions: Homo sapiens; for activity at 10 µM: OVCAR-4, single dose 10 μM, read-out: percent cell growth promotion
OVCAR-5 = experiment: NCI 60 cell panel SRB screen; type: cell-based; conditions: Homo sapiens; for activity at 10 µM: OVCAR-5, single dose 10 μM, read-out: percent cell growth promotion
786-0 = experiment: NCI 60 cell panel SRB screen; type: cell-based; conditions: Homo sapiens; for activity at 10 µM: 786-0, single dose 10 μM, read-out: percent cell growth promotion
BT-549 = experiment: NCI 60 cell panel SRB screen; type: cell-based; conditions: Homo sapiens; for activity at 10 µM: BT-549, read-out: percent cell growth promotion
T-47D = experiment: NCI 60 cell panel SRB screen; type: cell-based; conditions: Homo sapiens, T47D; for activity at 10 µM: read-out: percent cell growth promotion
VEGFR-2 tyrosine kinase = biological target: T1, VEGFR-2 tyrosine kinase (Homo sapiens, UniProt P35968); experiment: In vitro VEGFR-2 tyrosine kinase assay (BPS Bioscience); type: biochemical; conditions: read-out: VEGFR-2 % inhibition; 10 μM concentration
T1 construct: purchased BPS Bioscience 40301
Method in brief: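 For IC50, ADP formation after a 30-min 30 °C reaction was detected by ADP-Glo luminescence in duplicate, blank-subtracted and fitted as log inhibitor versus normalised response. The 10 µM single-dose test instead measured remaining ATP (Kinase-Glo Plus) after 40 min at 30 °C with poly(Glu,Tyr) substrate, 10 μM ATP, pH 7.4, 1% DMSO.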

[1] = 5 log dose, 48 h, read-out: LC50 (the source's name)

T1 sequence (P35968 20-1356): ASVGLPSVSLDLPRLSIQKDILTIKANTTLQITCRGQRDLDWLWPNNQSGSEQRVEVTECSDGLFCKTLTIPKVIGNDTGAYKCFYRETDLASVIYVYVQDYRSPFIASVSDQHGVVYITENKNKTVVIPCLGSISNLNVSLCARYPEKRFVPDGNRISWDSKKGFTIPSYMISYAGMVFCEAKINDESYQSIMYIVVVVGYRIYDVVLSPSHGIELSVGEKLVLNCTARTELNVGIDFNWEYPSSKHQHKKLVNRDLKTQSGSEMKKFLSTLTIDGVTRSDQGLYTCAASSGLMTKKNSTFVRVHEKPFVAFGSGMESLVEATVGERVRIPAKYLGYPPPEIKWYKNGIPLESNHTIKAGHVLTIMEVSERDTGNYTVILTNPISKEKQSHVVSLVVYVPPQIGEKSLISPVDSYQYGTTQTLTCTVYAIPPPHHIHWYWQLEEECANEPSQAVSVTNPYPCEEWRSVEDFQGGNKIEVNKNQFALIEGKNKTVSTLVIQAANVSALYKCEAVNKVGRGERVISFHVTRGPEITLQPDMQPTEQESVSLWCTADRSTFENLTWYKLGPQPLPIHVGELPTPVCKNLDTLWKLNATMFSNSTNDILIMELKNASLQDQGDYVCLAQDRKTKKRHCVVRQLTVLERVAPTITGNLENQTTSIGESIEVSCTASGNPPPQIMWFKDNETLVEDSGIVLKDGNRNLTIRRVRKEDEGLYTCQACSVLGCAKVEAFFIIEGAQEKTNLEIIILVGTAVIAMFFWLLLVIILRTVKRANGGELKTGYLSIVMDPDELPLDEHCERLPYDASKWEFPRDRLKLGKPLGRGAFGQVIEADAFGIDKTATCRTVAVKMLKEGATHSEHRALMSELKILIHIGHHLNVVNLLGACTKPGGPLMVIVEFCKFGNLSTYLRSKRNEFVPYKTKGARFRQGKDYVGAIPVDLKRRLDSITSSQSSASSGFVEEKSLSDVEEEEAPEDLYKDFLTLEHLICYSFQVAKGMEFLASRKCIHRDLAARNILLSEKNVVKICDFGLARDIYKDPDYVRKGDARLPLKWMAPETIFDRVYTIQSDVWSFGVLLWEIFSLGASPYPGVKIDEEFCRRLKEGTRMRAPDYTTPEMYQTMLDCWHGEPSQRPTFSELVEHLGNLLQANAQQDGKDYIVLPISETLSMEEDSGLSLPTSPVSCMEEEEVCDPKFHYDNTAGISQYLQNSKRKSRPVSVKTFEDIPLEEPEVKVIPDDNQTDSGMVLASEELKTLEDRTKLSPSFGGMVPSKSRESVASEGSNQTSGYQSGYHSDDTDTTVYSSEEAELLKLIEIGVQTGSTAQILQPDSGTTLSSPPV

Work on `Cc1nnc(Nc2ccc(NC(=O)Nc3ccc(Cl)cc3)cc2)c2ccccc12` [Compound 6e, 1–(4-Chlorophenyl)-3–(4-(4-methylphthalazin-1-ylamino)phenyl)urea] yielded a TGI (CCRF-CEM; 5 log dose) of 5.99 µM, a GI50 (CCRF-CEM; Homo sapiens, 5 log dose) of 2380 nM and a CC50 (CCRF-CEM; Homo sapiens, 5 log dose, 48 h, read-out: LC50 (the source's name)) of over 100 µM. For the same compound, the activity at 10 µM (CCRF-CEM; Homo sapiens) was 11%, the GI50 (K-562; K-562, 5 log dose) was 2200 nM and the IC (TGI) (K-562; K-562, 5 log dose) was 4.67 µM. For the same compound, the CC50 (K-562; K-562, 5 log dose, 48 h, read-out: LC50 (the source's name)) was 9.92 µM, the activity at 10 µM (K-562) was -16.7% and the GI50 (RPMI-8226; RPMI-8226, 5 log dose) was 2600 nM. For the same compound, the IC (TGI) (RPMI-8226; RPMI-8226, 5 log dose) was 6.48 µM, the CC50 (RPMI-8226; RPMI-8226, 5 log dose, 48 h, read-out: LC50 (the source's name)) was over 100 µM and the activity at 10 µM (RPMI-8226) was -11.9%. It also gave a GI50 (SR; 5 log dose) of 2560 nM, an IC (TGI) (SR; 5 log dose) of 9.55 µM and a CC50 (SR; [1]) of over 100 µM. The activity at 10 µM (SR) was -3.51%, the GI50 (NCI-H226; NCI-H226, 5 log dose) was 3.61 µM and the IC (TGI) (NCI-H226; NCI-H226, 5 log dose) was 15.9 µM. For the same compound, the CC50 (NCI-H226; NCI-H226, 5 log dose, 48 h, read-out: LC50 (the source's name)) was 64.6 µM, the activity at 10 µM (NCI-H226) was 71.9% and the GI50 (NCI-H23; NCI-H23, 5 log dose) was 2380 nM. For the same compound, the IC (TGI) (NCI-H23; NCI-H23, 5 log dose) was 6.31 µM, the CC50 (NCI-H23; NCI-H23, 5 log dose, 48 h, read-out: LC50 (the source's name)) was 40.9 µM and the activity at 10 µM (NCI-H23) was 48.8%. For the same compound, the GI50 (NCI-H322M; 5 log dose) was 3.31 µM, the IC (TGI) (NCI-H322M; 5 log dose) was 1.25 µM and the CC50 (NCI-H322M; [1]) was 69.5 µM. For the same compound, the activity at 10 µM (NCI-H322M) was 47.8%, the GI50 (NCI-H522; NCI-H522, 5 log dose) was 1840 nM and the IC (TGI) (NCI-H522; NCI-H522, 5 log dose) was 3.88 µM. It also gave a CC50 (NCI-H522; NCI-H522, 5 log dose, 48 h, read-out: LC50 (the source's name)) of 8.21 µM, an activity at 10 µM (NCI-H522) of 30.3% and a GI50 (COLO 205; COLO 205, 5 log dose) of 2220 nM. For the same compound, the IC (TGI) (COLO 205; COLO 205, 5 log dose) was 5.29 µM, the CC50 (COLO 205; COLO 205, 5 log dose, 48 h, read-out: LC50 (the source's name)) was 19.2 µM and the activity at 10 µM (COLO 205) was 28.2%. It also gave a GI50 (SW-620; SW-620, 5 log dose) of 2150 nM, an IC (TGI) (SW-620; SW-620, 5 log dose) of 4.76 µM and a CC50 (SW-620; SW-620, 5 log dose, 48 h, read-out: LC50 (the source's name)) of 11.9 µM. The activity at 10 µM (SW-620) was 20.3%, the GI50 (SNB-75; SNB-75, 5 log dose) was 1910 nM and the IC (TGI) (SNB-75; SNB-75, 5 log dose) was 5.49 µM. For the same compound, the LC50 (concentration killing 50% of cells) (SNB-75; SNB-75, 5 log dose, 48 h) was 21.3 µM, the activity at 10 µM (SNB-75) was 68.1% and the GI50 (LOX IMVI) was 1750 nM. The CC50 (LOX IMVI; [1]) was 6.11 µM, the IC (TGI) (LOX IMVI; read-out: TGI) was 3.27 µM and the activity at 10 µM (LOX IMVI) was -27.3%. The GI50 (MALME-3M; Malme-3M) was 2170 nM, the IC (TGI) (MALME-3M; Malme-3M, read-out: TGI) was 4.79 µM and the activity at 10 µM (MALME-3M; Malme-3M) was -9.9%. For the same compound, the CC50 (MALME-3M; MALME-3M, 5 log dose, 48 h, read-out: LC50 (the source's name)) was 20 µM, the GI50 (SK-MEL-28; SK-MEL-28) was 1630 nM and the IC (TGI) (SK-MEL-28; SK-MEL-28, read-out: TGI) was 3.2 µM. The activity at 10 µM (SK-MEL-28) was -11.9%, the CC50 (SK-MEL-28; SK-MEL-28, 5 log dose, 48 h, read-out: LC50 (the source's name)) was 6.29 µM and the GI50 (OVCAR-4; OVCAR-4, 5 log dose) was 2790 nM. It also gave an IC (TGI) (OVCAR-4; OVCAR-4, 5 log dose) of 8.36 µM, a CC50 (OVCAR-4; OVCAR-4, 5 log dose, 48 h, read-out: LC50 (the source's name)) of 58.2 µM and an activity at 10 µM (OVCAR-4) of 42.6%. For the same compound, the GI50 (OVCAR-5; OVCAR-5, 5 log dose) was 2100 nM, the IC (TGI) (OVCAR-5; OVCAR-5, 5 log dose) was 4.99 µM and the CC50 (OVCAR-5; OVCAR-5, 5 log dose, 48 h, read-out: LC50 (the source's name)) was 18.7 µM. For the same compound, the activity at 10 µM (OVCAR-5) was 72.8%, the GI50 (786-0; 786-0, 5 log dose) was 1710 nM and the IC (TGI) (786-0; 786-0, 5 log dose) was 3.34 µM. For the same compound, the CC50 (786-0; 786-0, 5 log dose, 48 h, read-out: LC50 (the source's name)) was 6.55 µM, the activity at 10 µM (786-0) was -27.9% and the GI50 (BT-549; BT-549) was 2210 nM. The IC (TGI) (BT-549; BT-549, read-out: TGI) was 5.55 µM, the activity at 10 µM (BT-549) was 11.4% and the CC50 (BT-549; BT-549, 5 log dose, 48 h, read-out: LC50 (the source's name)) was 66 µM. It also gave a GI50 (T-47D) of 2060 nM, an IC (TGI) (T-47D; read-out: TGI) of 5.08 µM and an activity at 10 µM (T-47D) of 8.43%. It also gave a CC50 (T-47D; T-47D, 5 log dose, 48 h, read-out: LC50 (the source's name)) of 56.4 µM and an inhibition at 10 µM (VEGFR-2 tyrosine kinase) of 19%.

For `c1ccc(N2CCN(c3nncc4ccccc34)CC2)nc1` [Compound 8d, 1–(4-(Pyridin-2-yl)piperazin-1-yl)phthalazine], the activity at 10 µM (CCRF-CEM; Homo sapiens) was 102%, the activity at 10 µM (K-562) was 106% and the activity at 10 µM (RPMI-8226) was 107%. For the same compound, the activity at 10 µM (SR) was 103%, the activity at 10 µM (NCI-H226) was 98.1% and the activity at 10 µM (NCI-H23) was 105%. The activity at 10 µM (NCI-H322M) was 114%, the activity at 10 µM (NCI-H522) was 99.4% and the activity at 10 µM (COLO 205) was 106%. For the same compound, the activity at 10 µM (SW-620) was 104%, the activity at 10 µM (SNB-75) was 105% and the activity at 10 µM (LOX IMVI) was 97.5%. For the same compound, the activity at 10 µM (MALME-3M; Malme-3M) was 109%, the activity at 10 µM (SK-MEL-28) was 108% and the activity at 10 µM (OVCAR-4) was 109%. For the same compound, the activity at 10 µM (OVCAR-5) was 105%, the activity at 10 µM (786-0) was 104% and the activity at 10 µM (BT-549) was 104%. For the same compound, the activity at 10 µM (T-47D) was 101% and the inhibition at 10 µM (VEGFR-2 tyrosine kinase) was 5%.
